Measured values as given in patent publication US8420119B2, “Drug composition for treating tumor with polymeric micelle encapsulating anti-neoplastic” (Industrial Technology Research Institute, priority 2009, dated 2013).
In brackets after ≈: the same amount, converted by molar mass.

What was measured:
AGS = assay: MTT assay AGS; assay type: cell-based, human; settings: Stomach, 72 hours
Procedure: (§1) Various human cancer lines, such as A549, AS2, and H460, were implanted onto multi-well plates and Dulbecco's Modified Eagle Media (high glucose) with 10% of fetal bovine serum and 1% of P/S being added to each well. […] Then a 20 μL of 0.5 mg/ml MTT (3-(4,5-dimethylthiazol-2-yl)-2,5-diphenyltetrazolium bromide) solution was added to each well to start the reaction. After 2 hours, the suspension of each well was removed and DMSO was added into the well to dissolve formazan, which was formed during the reaction. The living cell concentration was then obtained by analyzing the OD570 and OD600 data of each well.

PC-3 = assay: MTT assay PC-3; assay type: cell-based, human; settings: Prostate, PC-3, 72 hours
Procedure: as §1

AS2 = assay: MTT assay AS2; assay type: cell-based, human; settings: Lung, AS2, 72 hours
Procedure: as §1

[1] = In vivo kinetic test of SN38; design: species or system SD mice; settings: for lactone form SN38 in plasma: 4 mg/kg SN38 vein injection
Procedure: The concentrations of lactone form SN38 in bloods over the time were then determined by HPLC.
T1/2 (hr), AUCINF(hr*ng/ml), CL(mL/hr/kg), and Vss (mL/kg) in Table 7 represent half-life time, […], area under the curve to infinity, clearance, and volume of distribution at steady state, and the units thereof, respectively. The n represents sample number. These parameters can be measured and/or calculated according to the techniques known in the art.

hepG2/C3A = assay: MTT assay hepG2/C3A; assay type: cell-based, human; settings: Liver, 72 hours
Procedure: as §1

HT29 = assay: MTT assay HT29; assay type: cell-based, human; settings: Colorectal, HT29, 72 hours
Procedure: as §1

Colo 205 = assay: MTT assay Colo 205; assay type: cell-based, human; settings: Colorectal, Colo 205, 72 hours
Procedure: as §1

SCC-25 = assay: MTT assay SCC-25; assay type: cell-based, human; settings: Tongue, SCC-25, 72 hours
Procedure: as §1

OVCAR-3 = assay: MTT assay OVCAR-3; assay type: cell-based, human; settings: Ovarian, OVCAR-3, 72 hours
Procedure: as §1

RPMI2650 = assay: MTT assay RPMI2650; assay type: cell-based, human; settings: Nasalseptum, RPMI2650, 72 hours
Procedure: as §1

A549 = assay: MTT assay A549; assay type: cell-based, human; settings: Lung, A549, 72 hours
Procedure: as §1

U-87 MG = assay: MTT assay U-87 MG; assay type: cell-based, human; settings: Brain, 72 hours
Procedure: as §1

SK-HEP-1 = assay: MTT assay SK-HEP-1; assay type: cell-based, human; settings: Liver, SK-HEP-1, 72 hours
Procedure: as §1

H460 = assay: MTT assay H460; assay type: cell-based, human; settings: Lung, H460, 72 hours
Procedure: as §1

5637 = assay: MTT assay 5637; assay type: cell-based, human; settings: Bladder, 5637, 72 hours
Procedure: as §1

MCF-7 = assay: MTT assay MCF-7; assay type: cell-based, human; settings: Breast, MCF-7, 72 hours
Procedure: as §1

[2] = plasma SN38, 4 mg/kg vein injection

Question: With CCc1c2c(nc3ccc(O)cc13)-c1cc3c(c(=O)n1C2)COC(=O)[C@]3(O)CC [SN38, 7-ethyl-10-hydroxycamptothecin] as the molecule, how does the IC50 (AGS) read?
Answer: 0.04022 ± 0.01424 µg/mL (≈ 0.102 µM)

Question: What about the IC50 (PC-3) of the same molecule?
Answer: 0.0959 ± 0.02127 µg/mL (≈ 0.244 µM)

Question: What about the IC50 (AS2) of the same molecule?
Answer: 0.00176 ± 0.00023 µg/mL (≈ 0.00449 µM)

Question: And the “lactone form SN38 in plasma” value ([1]; 0.1 Hour(s))?
Answer: 710.8 ng/mL

Question: And the “lactone form SN38 in plasma” value ([1]; 0.2 Hour(s))?
Answer: 505.3 ng/mL

Question: What about the “lactone form SN38 in plasma” value ([1]; 0.3 Hour(s)) of the same molecule?
Answer: 265.3 ng/mL

Question: What about the “lactone form SN38 in plasma” value ([1]; 0.500 Hour(s)) of the same molecule?
Answer: 143.4 ng/mL

Question: And the “lactone form SN38 in plasma” value ([1]; 1.0 Hour(s))?
Answer: 32.3 ng/mL

Question: What about the “lactone form SN38 in plasma” value ([1]; 2.0 Day(s)) of the same molecule?
Answer: 12.5 ng/mL

Question: And the “lactone form SN38 in plasma” value ([1]; 4.0 Day(s))?
Answer: 9.0 ng/mL

Question: What about the “lactone form SN38 in plasma” value ([1]; 8.0 Day(s)) of the same molecule?
Answer: 7.3 ng/mL

Question: What about the “lactone form SN38 in plasma” value ([1]; 24.0 Day(s)) of the same molecule?
Answer: 1.0 ng/mL

Question: What about the “AUCINF” value [1, 2] of the same molecule?
Answer: 417 ng·h/mL

Question: And the “CL” value [1, 2]?
Answer: 41.5 mL/min/kg

Question: What about the “T1/2” value [1, 2] of the same molecule?
Answer: 6.2 h

Question: And the “Vss” value [1, 2]?
Answer: 34.3 L/kg

Question: What about the IC50 (hepG2/C3A) of the same molecule?
Answer: 0.0287 ± 0.0092 µg/mL (≈ 0.0731 µM)

Question: What about the IC50 (HT29) of the same molecule?
Answer: 0.0034 µg/mL (≈ 0.00866 µM)

Question: What about the IC50 (Colo 205) of the same molecule?
Answer: 0.00563 ± 0.00096 µg/mL (≈ 0.0143 µM)

Question: What about the IC50 (SCC-25) of the same molecule?
Answer: 0.01971 ± 0.01128 µg/mL (≈ 0.0502 µM)

Question: And the IC50 (OVCAR-3)?
Answer: 0.02273 ± 0.00214 µg/mL (≈ 0.0579 µM)

Question: What about the IC50 (RPMI2650) of the same molecule?
Answer: 0.00097 ± 7e-05 µg/mL (≈ 0.00247 µM)

Question: What about the IC50 (A549) of the same molecule?
Answer: 0.01387 ± 0.00123 µg/mL (≈ 0.0353 µM)

Question: What about the IC50 (U-87 MG) of the same molecule?
Answer: 0.01022 ± 0.0026 µg/mL (≈ 0.026 µM)

Question: What about the IC50 (SK-HEP-1) of the same molecule?
Answer: 0.01521 ± 0.00133 µg/mL (≈ 0.0388 µM)

Question: What about the IC50 (H460) of the same molecule?
Answer: 0.00318 ± 0.00026 µg/mL (≈ 0.0081 µM)

Question: And the IC50 5637?
Answer: 0.00036 ± 3e-05 µg/mL (≈ 0.000917 µM)

Question: And the IC50 (MCF-7)?
Answer: 0.06093 ± 0.04886 µg/mL (≈ 0.155 µM)
